Measurements published in US8569499B2, “Process for making trans-1-((1R,3S)-6-chloro-3-phenylindan-1-yl)-3,3-dimethylpiperazine” (H. Lundbeck A/S, priority 2005, dated 2013).

Tests used:
[1] = system: pigs sensitized to haloperidol; test: dystonia in pigs sensitized to haloperidol; assay type: in vivo
[2] = molecular target: dopamine (DA) D1 receptors (Homo sapiens, UniProt P21728); conditions: as described in PCT/DK04/000546; cited from earlier work
DA D2 receptors = DA D2 receptors (Homo sapiens, UniProt P14416); conditions: as described in PCT/DK04/000546; cited from earlier work
alfa1 adrenoceptors = conditions: as described in PCT/DK04/000546; cited from earlier work
dopamine D1 receptors = dopamine D1 receptors (Homo sapiens, UniProt P21728); conditions: as described in PCT/DK04/000546; cited from earlier work
dopamine D2 receptors = dopamine D2 receptors (Homo sapiens, UniProt P14416); conditions: as described in PCT/DK04/000546; cited from earlier work
[3] = molecular target: serotonin 5-HT2a receptors (Homo sapiens, UniProt P28223); conditions: as described in PCT/DK04/000546; cited from earlier work
CYP2D6 = CYP2D6 (Homo sapiens, UniProt P10635); conditions: as described in PCT/DK04/000546; cited from earlier work
rabbit model = conditions: as described in PCT/DK04/000546; cited from earlier work

dopamine (DA) D1 receptors, sequence (P21728 whole entry): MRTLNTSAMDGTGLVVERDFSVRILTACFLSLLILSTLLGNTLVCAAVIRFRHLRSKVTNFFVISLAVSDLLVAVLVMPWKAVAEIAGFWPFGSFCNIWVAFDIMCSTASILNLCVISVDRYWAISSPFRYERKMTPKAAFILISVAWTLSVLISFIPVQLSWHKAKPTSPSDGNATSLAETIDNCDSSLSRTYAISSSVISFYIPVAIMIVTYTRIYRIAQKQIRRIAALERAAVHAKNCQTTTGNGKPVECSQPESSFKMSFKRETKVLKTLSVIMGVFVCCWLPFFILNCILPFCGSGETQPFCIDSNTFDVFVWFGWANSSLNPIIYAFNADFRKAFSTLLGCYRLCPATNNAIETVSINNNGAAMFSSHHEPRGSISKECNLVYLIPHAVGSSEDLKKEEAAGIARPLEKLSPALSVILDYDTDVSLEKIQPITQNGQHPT
dopamine D1 receptors, sequence (P21728 whole entry): as above
serotonin 5-HT2a receptors, sequence (P28223 whole entry): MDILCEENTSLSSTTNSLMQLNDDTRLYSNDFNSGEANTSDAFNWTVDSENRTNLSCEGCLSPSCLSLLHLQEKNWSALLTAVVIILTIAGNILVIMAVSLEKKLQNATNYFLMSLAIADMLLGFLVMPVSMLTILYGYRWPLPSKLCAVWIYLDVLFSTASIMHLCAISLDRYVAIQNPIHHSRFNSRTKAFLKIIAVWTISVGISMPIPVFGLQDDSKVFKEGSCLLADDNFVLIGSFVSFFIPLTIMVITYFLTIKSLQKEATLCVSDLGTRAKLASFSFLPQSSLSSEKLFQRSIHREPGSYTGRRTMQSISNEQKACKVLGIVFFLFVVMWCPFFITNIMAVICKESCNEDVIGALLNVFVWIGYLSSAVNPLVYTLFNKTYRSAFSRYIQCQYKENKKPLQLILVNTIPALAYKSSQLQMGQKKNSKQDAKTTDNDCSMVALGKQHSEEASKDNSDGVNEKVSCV
DA D2 receptors, sequence (P14416 whole entry): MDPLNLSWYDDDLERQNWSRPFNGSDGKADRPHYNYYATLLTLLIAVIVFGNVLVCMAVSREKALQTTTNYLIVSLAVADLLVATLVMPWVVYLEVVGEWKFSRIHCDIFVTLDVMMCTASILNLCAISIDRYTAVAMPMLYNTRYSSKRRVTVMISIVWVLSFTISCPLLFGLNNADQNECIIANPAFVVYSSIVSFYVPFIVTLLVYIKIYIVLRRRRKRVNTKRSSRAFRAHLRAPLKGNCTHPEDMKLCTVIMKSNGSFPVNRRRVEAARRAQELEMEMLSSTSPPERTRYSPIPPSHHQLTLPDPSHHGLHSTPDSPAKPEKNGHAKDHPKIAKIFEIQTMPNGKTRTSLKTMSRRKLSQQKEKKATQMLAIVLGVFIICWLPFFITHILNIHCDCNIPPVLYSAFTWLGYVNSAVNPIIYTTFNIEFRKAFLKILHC
dopamine D2 receptors, sequence (P14416 whole entry): as above
CYP2D6, sequence (P10635 whole entry): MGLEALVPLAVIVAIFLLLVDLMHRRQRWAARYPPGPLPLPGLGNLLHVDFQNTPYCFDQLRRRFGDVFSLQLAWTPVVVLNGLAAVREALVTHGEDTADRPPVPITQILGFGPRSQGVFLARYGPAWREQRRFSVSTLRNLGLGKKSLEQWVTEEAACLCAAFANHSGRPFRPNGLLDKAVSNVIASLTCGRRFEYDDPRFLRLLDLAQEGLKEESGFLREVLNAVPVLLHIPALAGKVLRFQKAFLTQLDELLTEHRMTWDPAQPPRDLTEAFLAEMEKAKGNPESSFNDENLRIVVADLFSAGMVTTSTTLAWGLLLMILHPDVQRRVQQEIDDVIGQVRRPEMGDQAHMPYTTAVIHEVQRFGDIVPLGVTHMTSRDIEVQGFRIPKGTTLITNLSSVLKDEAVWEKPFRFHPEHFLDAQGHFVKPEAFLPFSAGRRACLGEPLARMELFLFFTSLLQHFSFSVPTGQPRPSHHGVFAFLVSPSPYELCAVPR

## CC1(C)CN([C@@H]2C[C@@H](c3ccccc3)c3ccc(Cl)cc32)CCN1 [Compound I, trans-1-((1R,3S)-6-chloro-3-phenylindan-1-yl)-3,3-dimethylpiperazine]
[1]
  induction of dystonia (EPS liability): did not induce dystonia
[2]
  affinity for dopamine (DA) D1 receptors: high affinity
DA D2 receptors
  affinity for DA D2 receptors: high affinity
alfa1 adrenoceptors
  affinity for alfa1 adrenoceptors: high affinity
Dopamine D1 receptors
  functional activity at dopamine D1 receptors: antagonist
Dopamine D2 receptors
  functional activity at dopamine D2 receptors: antagonist
[3]
  functional activity at serotonin 5-HT2a receptors: antagonist
CYP2D6
  inhibition of CYP2D6: relatively weak inhibitor
Rabbit model
  effect on the QT interval: relatively low effect
